US11911386B2, “Methods of treating B-cell proliferative disorder” (BeiGene Switzerland GmbH, priority 2022, dated 2024)

Tested on: panel of 370 kinases
Test: Kinome profiling at 100xIC50 (BTK) concentrations
Assay type: biochemical
Details: 100×IC50 (BTK) concentration

## C=CC(=O)N1CCC([C@@H]2CCNc3c(C(N)=O)c(-c4ccc(Oc5ccccc5)cc4)nn32)CC1 [zanubrutinib, (S)-7-(1-acryloylpiperidin-4-yl)-2-(4-phenoxyphenyl)-4,5,6,7-tetrahydropyrazolo[1,5-a]pyrimidine-3-carboxamide]
  Off-target kinases inhibited: seven
